# Measurements from patent US6737383B1, “Herbicidal oxadiazolidines” (priority 1999, dated 2004).
# Key:
# pigweed = assay: Test B pre/postemergence pigweed; type: in vivo, Amaranthus retroflexus
# Outline: (§1)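 Herbicidal effect was estimated by eye on a ten-point control scale after plants spent twelve to sixteen days in a greenhouse following soil or foliar treatment. Foliar sprays targeted plants at one to four leaves; all doses were formulated in a non-phytotoxic solvent with surfactant.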
# purple nutsedge = assay: Test B pre/postemergence purple nutsedge; type: in vivo, Cyperus rotundus
# Outline: as §1
# bamyardgrass = assay: Test B flood test barnyardgrass; type: in vivo, Echinochloa crus-galli
# Outline: (§2)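 Each value is a visual injury score relative to controls, with 10 meaning complete control and 0 no effect. Evaluation took place twelve to sixteen days after the 2-leaf-stage plants were treated and kept in the greenhouse.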
# corn = assay: Test B pre/postemergence corn; type: in vivo, Zea mays
# Outline: as §1
# rice = assay: Test B flood test rice; type: in vivo, Oryza sativa
# Outline: as §2
# crabgrass = assay: Test B pre/postemergence crabgrass; type: in vivo, Digitaria sanguinalis
# Outline: as §1
# wheat = assay: Test B pre/postemergence wheat; type: in vivo, Triticum aestivum
# Outline: as §1
# bedstraw = assay: Test B pre/postemergence bedstraw; type: in vivo, Galium aparine
# Outline: as §1
# morningglory = assay: Test B pre/postemergence morningglory; type: in vivo, Ipomoea hederacea
# Outline: as §1
# surinam grass = assay: Test B pre/postemergence surinam grass; type: in vivo, Brachiaria decumbens
# Outline: as §1
# cocklebur = assay: Test B pre/postemergence cocklebur; type: in vivo, Xanthium strumarium
# Outline: as §1
# blackgrass = assay: Test B pre/postemergence blackgrass; type: in vivo, Alopecurus myosuroides
# Outline: as §1
# wild oat = assay: Test B pre/postemergence wild oat; type: in vivo, Avena fatua
# Outline: as §1
# sugar beet = assay: Test B pre/postemergence sugar beet; type: in vivo, Beta vulgaris
# Outline: as §1
# giant foxtail = assay: Test B pre/postemergence giant foxtail; type: in vivo, Setaria faberii
# Outline: as §1
# rape = assay: Test B pre/postemergence rape; type: in vivo, Brassica napus
# Outline: as §1
# [1] = Preemergence, Rate 62 g/ha, scale of 0 to 10 where 0 is no effect and 10 is complete control
# [2] = Preemergence, Rate 250 g/ha, scale of 0 to 10 where 0 is no effect and 10 is complete control
# [3] = Preemergence, Rate 500 g/ha, scale of 0 to 10 where 0 is no effect and 10 is complete control
# [4] = Rate 125 g/ha, Postemergence, scale of 0 to 10 where 0 is no effect and 10 is complete control
# [5] = Rate 125 g/ha, Preemergence, scale of 0 to 10 where 0 is no effect and 10 is complete control
# [6] = Rate 250 g/ha, Postemergence, scale of 0 to 10 where 0 is no effect and 10 is complete control
# [7] = Rate 500 g/ha, Postemergence, scale 0 to 10, 0 no effect, 10 complete control
# [8] = Rate 62 g/ha, headed Pre-emergence (flood test species), scale 0 to 10 (0 no effect, 10 complete control)
# [9] = Rate 125 g/ha, Pre-emergence, flood test species, scale 0 to 10 where 0 is no effect and 10 is complete control
# [10] = Rate 250 g/ha, Pre-emergence, flood-test species, scale 0 to 10, 0 is no effect, 10 is complete control
# [11] = Rate 500 g/ha, Pre-emergence, flood test species, scale 0 to 10 (0 no effect, 10 complete control)
# [12] = Rate 62 g/ha, Postemergence, scale of 0 to 10 where 0 is no effect and 10 is complete control
smiles,measurement,setting,value
CC(C)N(C(=O)n1oc(=O)n(CC(C)(C)C)c1=O)c1ccccc1 [Compound 276],Redroot pigweed plant response rating,pigweed; [1],0
same,Redroot pigweed plant response rating,pigweed; [2],2
same,"Plant response rating, Redroot pigweed",pigweed; [3],4
same,Redroot pigweed plant response rating,pigweed; [4],0
same,Redroot pigweed plant response rating,pigweed; [5],0
same,"Plant response rating, Redroot pigweed",pigweed; [6],1
same,Redroot pigweed plant response rating,pigweed; [7],2
same,Nutsedge plant response rating,purple nutsedge; [1],0
same,Nutsedge plant response rating,purple nutsedge; [4],0
same,Nutsedge plant response rating,purple nutsedge; [5],0
same,"Plant response rating, Nutsedge",purple nutsedge; [6],0
same,Nutsedge plant response rating,purple nutsedge; [7],0
same,Barnyardgrass plant response rating,bamyardgrass; [8],1
same,Barnyardgrass plant response rating,bamyardgrass; [9],6
same,Barnyardgrass plant response rating,bamyardgrass; [10],8
same,Barnyardgrass plant response rating,bamyardgrass; [11],8
same,Corn plant response rating,corn; [1],0
same,Corn plant response rating,corn; [2],0
same,"Plant response rating, Corn",corn; [3],0
same,Corn plant response rating,corn; [12],0
same,Corn plant response rating,corn; [4],0
same,Corn plant response rating,corn; [5],0
same,"Plant response rating, Corn",corn; [6],0
same,Corn plant response rating,corn; [7],0
same,Rice plant response rating,rice; [8],0
same,Rice plant response rating,rice; [9],0
same,Rice plant response rating,rice; [10],0
same,Rice plant response rating,rice; [11],0
same,Crabgrass plant response rating,crabgrass; [1],3
same,Crabgrass plant response rating,crabgrass; [2],6
same,"Plant response rating, Crabgrass",crabgrass; [3],7
same,Crabgrass plant response rating,crabgrass; [4],0
same,Crabgrass plant response rating,crabgrass; [5],4
same,"Plant response rating, Crabgrass",crabgrass; [6],6
same,Crabgrass plant response rating,crabgrass; [7],7
same,Wheat plant response rating,wheat; [1],0
same,Wheat plant response rating,wheat; [2],0
same,"Plant response rating, Wheat",wheat; [3],3
same,Wheat plant response rating,wheat; [4],0
same,Wheat plant response rating,wheat; [5],0
same,"Plant response rating, Wheat",wheat; [6],0
same,Wheat plant response rating,wheat; [7],0
same,Bedstraw plant response rating,bedstraw; [1],0
same,Bedstraw plant response rating,bedstraw; [2],0
same,"Plant response rating, Bedstraw",bedstraw; [3],0
same,Bedstraw plant response rating,bedstraw; [12],0
same,Bedstraw plant response rating,bedstraw; [4],0
same,Bedstraw plant response rating,bedstraw; [5],0
same,"Plant response rating, Bedstraw",bedstraw; [6],3
same,Bedstraw plant response rating,bedstraw; [7],3
same,Morningglory plant response rating,morningglory; [1],0
same,Morningglory plant response rating,morningglory; [2],0
same,"Plant response rating, Morningglory",morningglory; [3],0
same,Morningglory plant response rating,morningglory; [4],6
same,Morningglory plant response rating,morningglory; [5],0
same,"Plant response rating, Morningglory",morningglory; [6],6
same,Morningglory plant response rating,morningglory; [7],8
same,B. signalgrass plant response rating,surinam grass; [1],4
same,B. signalgrass plant response rating,surinam grass; [2],10
same,"Plant response rating, B. signalgrass",surinam grass; [3],10
same,B. signalgrass plant response rating,surinam grass; [12],0
same,B. signalgrass plant response rating,surinam grass; [4],0
same,B. signalgrass plant response rating,surinam grass; [5],7
same,"Plant response rating, B. signalgrass",surinam grass; [6],0
same,B. signalgrass plant response rating,surinam grass; [7],0
same,Cocklebur plant response rating,cocklebur; [1],0
same,Cocklebur plant response rating,cocklebur; [2],0
same,"Plant response rating, Cocklebur",cocklebur; [3],0
same,Cocklebur plant response rating,cocklebur; [12],0
same,Cocklebur plant response rating,cocklebur; [4],0
same,Cocklebur plant response rating,cocklebur; [5],0
same,"Plant response rating, Cocklebur",cocklebur; [6],0
same,Cocklebur plant response rating,cocklebur; [7],0
same,Blackgrass plant response rating,blackgrass; [2],10
same,"Plant response rating, Blackgrass",blackgrass; [3],10
same,Blackgrass plant response rating,blackgrass; [12],0
same,Blackgrass plant response rating,blackgrass; [4],1
same,Blackgrass plant response rating,blackgrass; [5],6
same,"Plant response rating, Blackgrass",blackgrass; [6],4
same,Blackgrass plant response rating,blackgrass; [7],8
same,Wild oats plant response rating,wild oat; [1],0
same,Wild oats plant response rating,wild oat; [2],4
same,"Plant response rating, Wild oats",wild oat; [3],6
same,Wild oats plant response rating,wild oat; [4],0
same,"Plant response rating, Wild oats",wild oat; [6],0
same,Wild oats plant response rating,wild oat; [7],0
same,Sugarbeets plant response rating,sugar beet; [1],0
same,Sugarbeets plant response rating,sugar beet; [2],1
same,"Plant response rating, Sugarbeets",sugar beet; [3],7
same,Sugarbeets plant response rating,sugar beet; [4],0
same,Sugarbeets plant response rating,sugar beet; [5],1
same,"Plant response rating, Sugarbeets",sugar beet; [6],2
same,Sugarbeets plant response rating,sugar beet; [7],2
same,Giant foxtail plant response rating,giant foxtail; [1],9
same,Giant foxtail plant response rating,giant foxtail; [2],10
same,"Plant response rating, Giant foxtail",giant foxtail; [3],10
same,Giant foxtail plant response rating,giant foxtail; [4],1
same,Giant foxtail plant response rating,giant foxtail; [5],10
same,"Plant response rating, Giant foxtail",giant foxtail; [6],4
same,Giant foxtail plant response rating,giant foxtail; [7],6
same,Rape plant response rating,rape; [1],0
same,Rape plant response rating,rape; [2],1
same,"Plant response rating, Rape",rape; [3],10
same,Rape plant response rating,rape; [4],0
same,Rape plant response rating,rape; [5],0
same,"Plant response rating, Rape",rape; [6],0
same,Rape plant response rating,rape; [7],0
